The subject of series [1] is L858R/T790M EGFR mutant kinase. On the set-up: method as in PMID 27251290. The note with it: cited from earlier work.
For series [2] the following is noted: mouse, in vivo. Here is the method: We subsequently analyzed the single and combined effects of Abcb1 and Abcg2 deficiencies on EAI045 plasma pharmacokinetics and tissue accumulation using male WT, Abcg2^-/-, Abcb1a/1b^-/-, and Abcb1a/1b;Abcg2^-/- mice. As we wanted to assess tissue concentrations while plasma concentrations were still relatively high; we terminated this experiment at 30 min.
(§1) Mice (Mus musculus) were bred in the Netherlands Cancer Institute and housed and handled according to institutional guidelines complying with Dutch and EU legislation. Animals used were WT, Abcb1a/1b^-/- [39], Abcg2^-/- [40], Abcb1a/1b;Abcg2^-/- [41], Cyp3a^-/- [42], and Oatp1a/1b^-/- [43] mice of a >99% FVB/N strain background. Homozygous CYP3A4 humanized transgenic mice (Cyp3aXAV) were generated by cross-breeding of transgenic mice with stable human CYP3A4 expression in the liver or intestine, respectively, in a Cyp3a^-/- background. Proper functionality of the knockout and transgenic strains was monitored by regular testing with a variety of drug substrates. All the mice used were between 10 and 15 weeks of age. Animals were kept in a temperature-controlled environment with a 12 h light/12 h dark cycle and received a standard diet (Transbreed, SDS Diets, Technilab-BMI, The Netherlands) and acidified water ad libitum. Depending on the type of experiment, 5 or 6 mice were tested in each experimental group. All experimental animal protocols, including power calculations, were ethically assessed and designed under the nationally approved DEC/CCD project AVD301002016595 (approval date, 10 August 2016) and evaluated and approved by the institutional animal care and use committee (IACUC) of the Netherlands Cancer Institute.
(§2) EAI045 was dissolved in dimethyl sulfoxide (DMSO) at a concentration of […], and then diluted with a mixture of polysorbate 80/ethanol (1:1, v/v), and further diluted with 5% (w/v) glucose in water to yield a concentration of 2 mg/mL. Final concentrations for DMSO, polysorbate 80, ethanol, and glucose in the dosing solution were 5%, 2.5%, 2.5%, and 4.5% (v/v/v/w), respectively. Elacridar hydrochloride was dissolved in DMSO at a concentration of 53 mg/mL, then diluted with a mixture of polysorbate 80, ethanol, and water [20:13:67, (v/v/v)] to yield a concentration of 5 mg/mL elacridar. The final oral dose of elacridar was 50 mg/kg body weight. All dosing solutions were prepared freshly on the day of experiment.
(§3) To minimize variation in absorption, mice were fasted for about 3 h before EAI045 was administered by gavage into the stomach (n = 5–6), using a blunt-ended needle. EAI045 was administered orally at dose of 20 mg/kg. Elacridar was administered orally at a dose of 50 mg/kg, 3 h prior to oral EAI045 administration. For the 24- or 4-h experiments, tail vein blood samplings were performed at 5 min, 30 min, 1, 2, 4, and 8 h, or 5 min, 15 min, 30 min, 1, and 2 h time points after oral administration of EAI045, respectively, using microvettes containing heparin. For the 30 min experiments, blood samplings were performed at 5, 10, and 20 min from the tail vein. At the last time point (24 h, 4 h, or 30 min), mice were anesthetized with isoflurane and blood was collected by cardiac puncture. Then, mice were sacrificed by cervical dislocation and brain, liver, spleen, kidneys, lung, small intestine with content (SIWC), and testis were rapidly removed and weighed. Tissues were homogenized on ice in appropriate volumes of 2% (w/v) BSA. Blood samples were centrifuged at 9000× g for 6 min at 4 °C immediately after collection. All samples were stored at −30 °C until analysis.

The conditions of series [3]: mouse, in vivo.
Description: as §1, §2, §3
The source holds these as a separate data set.

On the set-up of series [4]: method as in PMID 28288939, PMID 30253203, PMID 31175939, PMID 33459177, PMID 35400324. The conditions noted are these: reported; cited from earlier work.
Series [5] has as its system human OATP1A2. Also noted: method as in PMID 31770475. The conditions noted are these: cited from earlier work.
For series [6] the following is noted: after oral administration; no reference given; cited from earlier work.

EAI001 [reference compound]: the “potency against individual L858R and T790M mutants” value in series [1] is on record as “modest potency”.

As to `O=C(O)C(c1cc(F)ccc1O)N1Cc2ccccc2C1=O` (stereo not shown) [PIA], in series [2], the “PIA SIWC%, fold decrease” value was 1.8 fold; the “PIA SIWC%-to-plasma ratio, fold decrease” value was found to be 2.7 fold; the “amount of PIA retrieved from SIWC, % of the EAI045 dose” value was ~ 0.3%. Moreover, the “PIA oral AUC0–30min among the strains” value in series [2] (po) was “no meaningful differences”. In series [2] (po, 20 mg/kg), the “PIA/EAI045 AUC0–30min ratio” value is 270-480% and the “PIA/EAI045 AUC ratio” value is “about 400%”. Further, in series [2] (po, 20 mg/kg, 0.5 h), the PIA brain-to-plasma ratio came to 0.014. In addition, in series [3], the “PIA brain-to-plasma ratio, fold increase” value was 3.3 fold; the “PIA kidney-to-plasma ratio, fold increase” value turned out to be 4.2 fold; the “PIA liver-to-plasma ratio, fold decrease” value stood at 1.5 fold.

`COc1cc(N2CCC(N3CCN(C)CC3)CC2)ccc1Nc1ncc(Cl)c(Nc2ccccc2P(C)(C)=O)n1` [brigatinib]: the “increase in brain penetration in Abcb1a/1b;Abcg2-/- compared to WT mice” value (“increase in brain penetration” below) in series [4] is on record as 38 fold.

`COc1cc2c(cc1OC)CN(CCc1ccc(NC(=O)c3cccc4c(=O)c5cccc(OC)c5[nH]c34)cc1)CC2` [elacridar]: the “inhibition of human OATP1A2” value in series [5] is given as “reported to inhibit”. Also, the “time of peak plasma concentration” value in series [6] is 3 to 4 h.

For `C=CC(=O)Nc1cc(Nc2nccc(-c3cn(C)c4ccccc34)n2)c(OC)cc1N(C)CCN(C)C` [osimertinib], the “increase in brain penetration” value in series [4] was 6.4 fold.

Consider `CN(C)C/C=C/C(=O)Nc1cc2c(Nc3ccc(F)c(Cl)c3)ncnc2cc1O[C@H]1CCOC1` [afatinib], for which, in series [4], the “increase in brain penetration” value is on record as 28 fold.

The record behind these values is publication PMC9505538, “P-Glycoprotein (MDR1/ABCB1) Restricts Brain Accumulation of the Novel EGFR Inhibitor EAI045 and Oral Elacridar Coadministration Enhances Its Brain Accumulation and Oral Exposure” (Pharmaceuticals, 2022).
